Assay results published in ChEMBL document CHEMBL4414553, “Imidazopyridine-based selective and multifunctional ligands of biological targets associated with psychiatric and neurodegenerative diseases” (Eur J Med Chem, 2019).

Experiments:
Translocator protein = Translocator protein (Homo sapiens, UniProt P30536); assay: Inhibition of TSPO (unknown origin)
[1] = Inhibition of CBR (unknown origin); design: species or system Homo sapiens
[2] = target: T1, Fatty-acid amide hydrolase 1 (Homo sapiens, UniProt O00519); assay: Inhibition of FAAH (unknown origin)
T1 sequence (O00519 whole entry): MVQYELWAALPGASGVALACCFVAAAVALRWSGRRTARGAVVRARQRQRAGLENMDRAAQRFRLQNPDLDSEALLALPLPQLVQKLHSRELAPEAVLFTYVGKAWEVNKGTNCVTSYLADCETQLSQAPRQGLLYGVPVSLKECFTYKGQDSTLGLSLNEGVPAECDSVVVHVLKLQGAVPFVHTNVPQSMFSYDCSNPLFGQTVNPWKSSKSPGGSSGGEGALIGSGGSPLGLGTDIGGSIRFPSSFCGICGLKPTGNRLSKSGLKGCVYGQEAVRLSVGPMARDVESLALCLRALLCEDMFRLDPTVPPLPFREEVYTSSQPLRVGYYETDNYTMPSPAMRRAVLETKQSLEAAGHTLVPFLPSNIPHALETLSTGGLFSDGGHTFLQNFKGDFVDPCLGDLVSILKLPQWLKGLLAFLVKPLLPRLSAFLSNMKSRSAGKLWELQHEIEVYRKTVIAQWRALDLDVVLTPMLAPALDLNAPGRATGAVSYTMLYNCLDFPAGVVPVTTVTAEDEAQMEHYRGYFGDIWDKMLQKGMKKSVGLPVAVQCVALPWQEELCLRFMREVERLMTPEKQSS

[3] = target: Glutamate [NMDA] receptor; assay: Modulator activity at NMDA receptor (unknown origin); type: protein-complex assay, Homo sapiens
Mus musculus = assay: Inhibition of DYRK1A in mouse at 3 mg/kg relative to control; type: functional
[4] = target: Glycogen synthase kinase-3 (Homo sapiens, UniProt P49840+P49841); assay: Inhibition of GSK3 (unknown origin); type: protein assay
[5] = Partition coefficient, log P of the compound; type: physicochemical; conditions: octanol/water
[6] = Lipophilicity, log D of the compound; type: physicochemical; conditions: octanol/water
[7] = target: T2, 5-hydroxytryptamine receptor 3A (Homo sapiens, UniProt P46098); assay: Antagonist activity at 5-HT3 receptor (unknown origin)
T2 sequence (P46098 whole entry): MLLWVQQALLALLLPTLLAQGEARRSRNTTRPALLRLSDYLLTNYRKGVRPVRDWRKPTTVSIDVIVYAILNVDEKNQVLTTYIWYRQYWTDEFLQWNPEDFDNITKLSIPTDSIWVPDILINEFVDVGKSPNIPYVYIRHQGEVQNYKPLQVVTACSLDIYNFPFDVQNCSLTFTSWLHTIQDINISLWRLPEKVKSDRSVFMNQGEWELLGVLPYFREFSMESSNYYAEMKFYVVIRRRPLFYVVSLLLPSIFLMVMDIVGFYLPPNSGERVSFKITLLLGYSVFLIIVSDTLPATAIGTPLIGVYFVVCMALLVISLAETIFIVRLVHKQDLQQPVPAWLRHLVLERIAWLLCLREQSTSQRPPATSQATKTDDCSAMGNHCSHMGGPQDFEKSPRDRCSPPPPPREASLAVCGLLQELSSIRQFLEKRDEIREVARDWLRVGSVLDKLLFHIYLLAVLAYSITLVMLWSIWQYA

[8] = target: cAMP and cAMP-inhibited cGMP 3',5'-cyclic phosphodiesterase 10A (Homo sapiens, UniProt Q9Y233); assay: Inhibition of human PDE10
[9] = target: T3, Sodium- and chloride-dependent glycine transporter 1 (Homo sapiens, UniProt P48067); assay: Inhibition of GlyT1 (unknown origin)
T3 sequence (P48067 whole entry): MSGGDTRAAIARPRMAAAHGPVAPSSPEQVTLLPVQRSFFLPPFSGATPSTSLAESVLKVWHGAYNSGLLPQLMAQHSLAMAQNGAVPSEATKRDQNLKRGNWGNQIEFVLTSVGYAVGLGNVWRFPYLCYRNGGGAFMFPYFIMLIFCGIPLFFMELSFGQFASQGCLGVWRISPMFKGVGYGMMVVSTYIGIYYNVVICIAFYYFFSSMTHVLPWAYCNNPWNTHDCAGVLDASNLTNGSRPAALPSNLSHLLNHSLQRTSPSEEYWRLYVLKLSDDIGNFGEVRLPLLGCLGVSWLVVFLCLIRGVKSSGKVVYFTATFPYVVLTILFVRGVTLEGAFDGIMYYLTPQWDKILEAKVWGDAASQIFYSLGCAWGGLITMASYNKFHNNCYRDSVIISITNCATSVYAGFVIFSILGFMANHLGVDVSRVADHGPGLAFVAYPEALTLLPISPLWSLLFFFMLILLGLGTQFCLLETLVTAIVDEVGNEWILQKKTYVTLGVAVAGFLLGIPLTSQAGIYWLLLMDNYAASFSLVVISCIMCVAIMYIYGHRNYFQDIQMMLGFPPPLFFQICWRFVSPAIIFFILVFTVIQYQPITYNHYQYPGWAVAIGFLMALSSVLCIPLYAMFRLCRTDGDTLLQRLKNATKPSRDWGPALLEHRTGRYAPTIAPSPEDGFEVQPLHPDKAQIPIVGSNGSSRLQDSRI

[10] = Inhibition of MARK (unknown origin); design: species or system Homo sapiens
D(4) dopamine receptor = target: T4, D(4) dopamine receptor (Homo sapiens, UniProt P21917); assay: Agonist activity at dopamine D4 receptor (unknown origin)
T4 sequence (P21917 whole entry): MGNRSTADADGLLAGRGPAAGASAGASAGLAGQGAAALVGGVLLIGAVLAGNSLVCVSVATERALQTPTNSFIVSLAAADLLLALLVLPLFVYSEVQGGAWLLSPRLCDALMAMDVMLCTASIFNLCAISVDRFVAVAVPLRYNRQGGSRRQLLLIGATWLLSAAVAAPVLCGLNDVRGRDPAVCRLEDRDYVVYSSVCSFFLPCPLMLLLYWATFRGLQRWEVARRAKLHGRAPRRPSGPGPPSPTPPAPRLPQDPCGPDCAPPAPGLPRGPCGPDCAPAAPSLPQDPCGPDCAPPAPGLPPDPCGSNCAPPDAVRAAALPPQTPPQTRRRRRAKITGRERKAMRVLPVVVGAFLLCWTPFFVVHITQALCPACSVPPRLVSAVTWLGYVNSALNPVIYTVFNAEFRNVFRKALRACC

[11] = target: T5, 5-hydroxytryptamine receptor 4 (Homo sapiens, UniProt Q13639); assay: Antagonist activity at 5-HT4 receptor (unknown origin)
[12] = target: T5, 5-hydroxytryptamine receptor 4; assay: Inhibition of 5-HT4 receptor (unknown origin)
Adenosine receptor A1 = target: T6, Adenosine receptor A1 (Homo sapiens, UniProt P30542); assay: Inhibition of human A1 receptor
T6 sequence (P30542 whole entry): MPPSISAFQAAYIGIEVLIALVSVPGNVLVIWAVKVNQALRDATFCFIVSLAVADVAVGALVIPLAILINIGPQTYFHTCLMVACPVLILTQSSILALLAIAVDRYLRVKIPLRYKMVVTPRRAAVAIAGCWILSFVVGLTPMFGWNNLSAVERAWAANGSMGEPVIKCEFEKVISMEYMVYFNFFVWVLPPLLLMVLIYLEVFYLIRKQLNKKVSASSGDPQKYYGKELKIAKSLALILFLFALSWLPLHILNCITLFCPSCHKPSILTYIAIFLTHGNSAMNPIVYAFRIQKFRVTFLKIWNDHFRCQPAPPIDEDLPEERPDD

Adenosine A2 receptor = Adenosine A2 receptor (Homo sapiens, UniProt P29275+P29274); assay: Inhibition of GFP-tagged human A2 receptor expressed in HEK cells by FRET-binding assay; type: cell-based
Histamine H3 receptor = Histamine H3 receptor (Cavia porcellus, UniProt Q9JI35); assay: Inhibition of Guinea Pig Ileum H3R
Chain of Histamine H3 receptor (Q9JI35 whole entry): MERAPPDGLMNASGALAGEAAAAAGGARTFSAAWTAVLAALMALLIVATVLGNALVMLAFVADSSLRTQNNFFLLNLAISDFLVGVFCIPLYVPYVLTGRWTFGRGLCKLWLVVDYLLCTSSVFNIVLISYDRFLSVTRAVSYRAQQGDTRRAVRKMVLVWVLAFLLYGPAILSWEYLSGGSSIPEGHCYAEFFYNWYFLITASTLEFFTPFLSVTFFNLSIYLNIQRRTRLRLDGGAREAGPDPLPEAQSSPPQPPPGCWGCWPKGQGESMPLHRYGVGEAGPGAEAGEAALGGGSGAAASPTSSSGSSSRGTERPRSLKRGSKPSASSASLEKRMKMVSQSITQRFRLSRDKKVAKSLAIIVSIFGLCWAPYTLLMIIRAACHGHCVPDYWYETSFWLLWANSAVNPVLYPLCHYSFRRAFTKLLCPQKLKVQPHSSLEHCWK

Chain of Translocator protein (P30536 whole entry): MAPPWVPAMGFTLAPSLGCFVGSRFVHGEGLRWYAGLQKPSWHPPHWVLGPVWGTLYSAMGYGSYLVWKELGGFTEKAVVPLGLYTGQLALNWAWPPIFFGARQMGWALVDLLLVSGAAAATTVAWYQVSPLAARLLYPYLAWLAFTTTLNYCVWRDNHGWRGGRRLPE
T5 sequence (Q13639 whole entry): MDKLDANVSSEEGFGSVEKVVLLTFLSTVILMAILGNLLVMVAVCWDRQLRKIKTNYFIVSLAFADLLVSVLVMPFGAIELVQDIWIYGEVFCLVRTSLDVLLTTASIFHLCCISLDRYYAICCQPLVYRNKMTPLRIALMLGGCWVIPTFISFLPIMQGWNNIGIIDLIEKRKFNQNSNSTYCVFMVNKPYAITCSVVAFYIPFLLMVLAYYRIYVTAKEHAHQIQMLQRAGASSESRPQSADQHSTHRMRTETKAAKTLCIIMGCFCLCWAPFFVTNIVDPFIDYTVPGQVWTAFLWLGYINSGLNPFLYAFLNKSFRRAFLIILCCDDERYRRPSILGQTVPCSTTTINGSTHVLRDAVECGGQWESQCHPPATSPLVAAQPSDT
Chain of cAMP and cAMP-inhibited cGMP 3',5'-cyclic phosphodiesterase 10A (Q9Y233 whole entry): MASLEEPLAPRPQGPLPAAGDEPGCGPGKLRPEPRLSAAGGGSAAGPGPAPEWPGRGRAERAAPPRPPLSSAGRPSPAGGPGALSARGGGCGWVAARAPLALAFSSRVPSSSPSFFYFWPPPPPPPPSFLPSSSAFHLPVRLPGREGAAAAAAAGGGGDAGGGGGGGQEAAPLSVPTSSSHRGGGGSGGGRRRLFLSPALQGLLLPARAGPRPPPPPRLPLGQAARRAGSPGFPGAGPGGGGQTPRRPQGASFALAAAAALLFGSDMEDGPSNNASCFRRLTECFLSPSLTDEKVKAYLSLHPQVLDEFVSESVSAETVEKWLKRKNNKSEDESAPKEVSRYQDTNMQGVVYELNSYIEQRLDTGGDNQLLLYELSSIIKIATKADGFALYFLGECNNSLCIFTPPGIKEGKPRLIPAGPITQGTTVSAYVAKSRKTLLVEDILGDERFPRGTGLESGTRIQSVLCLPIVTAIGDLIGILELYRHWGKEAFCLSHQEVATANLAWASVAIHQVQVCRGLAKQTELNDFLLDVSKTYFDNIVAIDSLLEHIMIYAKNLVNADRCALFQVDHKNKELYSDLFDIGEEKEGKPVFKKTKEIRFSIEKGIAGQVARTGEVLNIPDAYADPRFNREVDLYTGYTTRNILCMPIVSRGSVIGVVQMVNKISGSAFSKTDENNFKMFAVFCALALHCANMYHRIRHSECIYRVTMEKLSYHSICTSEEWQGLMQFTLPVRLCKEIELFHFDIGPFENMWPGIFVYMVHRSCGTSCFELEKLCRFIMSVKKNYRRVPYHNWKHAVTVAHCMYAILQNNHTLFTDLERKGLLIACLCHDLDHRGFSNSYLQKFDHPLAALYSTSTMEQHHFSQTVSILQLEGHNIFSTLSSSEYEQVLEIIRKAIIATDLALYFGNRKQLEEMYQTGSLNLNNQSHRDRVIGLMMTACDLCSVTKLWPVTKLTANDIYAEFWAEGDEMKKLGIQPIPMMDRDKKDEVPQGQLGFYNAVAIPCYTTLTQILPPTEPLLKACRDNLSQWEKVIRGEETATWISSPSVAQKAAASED

CCCN(CCC)C(=O)Cc1c(-c2ccc(Cl)cc2)nc2c(CC(=O)CCCCC(=O)Nc3ccn([C@@H]4O[C@H](CO)[C@@H](O)[C@@H]4O)c(=O)n3)cccn12
IC50 (Translocator protein): 2.13 nM

CCCN(CCC)C(=O)Cc1c(-c2ccc(Cl)cc2)nc2ccc(Cl)cn12 [ALPIDEM]
IC50 (Translocator protein): 7.9 nM | Ki (Translocator protein): 0.5 to 7 nM | IC50 [1]: 26 nM

O=C(COc1ccc(-c2ccccc2)cc1)Nc1cccc(-c2nc3ncccc3o2)c1
IC50 [2]: 630 nM

Cc1ccc2c(c1)C1CC(C)CCC1N2c1c(C(F)(F)F)nc2c(C)cccn12 (stereo not drawn)
IC50 [3]: 40000 nM

Cc1nc2ccc(-c3cc(N)nc(N)c3)nc2n1C(C)C
inhibition in vivo at 3 mg/kg (Mus musculus): 49%

COc1ccc(-c2ccnc3[nH]c(-c4ccc(C(=O)N5CCCCC5)cc4)nc23)cc1
IC50 [4]: 31 nM

c1ccn2ccnc2c1
logP [5]: 0.41 | logD [6]: 0.73

Cn1cnc2cccnc21
logP ([5]; read-out: logP): 0.63 | logD ([6]; read-out: logD): 0.63

O=C(NC1CN2CCC1CC2)c1cc(Cl)cn2ccnc12 (stereo not drawn)
IC50 [7]: 17.5 nM | Ki [7]: 12 nM

CCCN(CCC)C(=O)Cc1c(-c2ccc(Cl)cc2)nc2c(NC(=O)CCC(=O)OCC)cccn12
Ki (Translocator protein): 0.86 nM

CCCN(CCC)C(=O)Cc1c(-c2ccc(Cl)cc2)nc2c(N)cccn12
Ki (Translocator protein): 1.6 nM

c1cc2[nH]cnc2cn1
logP ([5]; read-out: logP): 0.04 | logD ([6]; read-out: logD): 0.03

O=C(COc1ccc(-c2ccccc2)cc1)Nc1cccc(-c2nc3cccnc3[nH]2)c1
IC50 [2]: 13000 nM

CCSc1ccncc1NC(=O)c1ccnc2[nH]c(-c3ccc(N4CCCC4)cc3)nc12
IC50 [4]: 3 nM

CCCN(CCC)C(=O)Cc1c(-c2ccc([N+](=O)[O-])cc2)nc2c(Cl)cc(Cl)cn12
Ki (Translocator protein): 0.15 nM

Cc1nc(C2CC2c2nc3ccccn3c2C)cc(-n2nc(C)nc2C)n1 (stereo not drawn)
Ki [8]: 2.1 nM

Fc1ccc(C(CCCN2CCC(Cc3nc4cccnc4n3Cc3cccs3)CC2)c2ccc(F)cc2)cc1
IC50 [9]: 549 nM

Cc1ccc2c(c1)C1CN(C)CCC1N2CCC(=O)N(C)c1c(C(F)(F)F)nc2ccc(C)cn12 (stereo not drawn)
IC50 [3]: 33000 nM

Cn1cnc2cnccc21
logP ([5]; read-out: logP): 0.27 | logD ([6]; read-out: logD): 0.26

CCC/C=C/COCC(=O)Nc1cccc(-c2nc3ncccc3o2)c1
IC50 [2]: 17000 nM

N[C@H]1CCCC(F)(F)[C@@H]1NC(=O)c1nc(-c2cnc3ccccn23)c(Cl)s1
IC50 [10]: 720 nM

Cc1cn2c(N)c(Cl)cc(C(=O)NCC3CCNCC3)c2n1
Ki [7]: 26 nM

N[C@H]1CCCC(F)(F)[C@@H]1NC(=O)c1cc(-c2cnc3ccccn23)cs1
IC50 [10]: 15 nM

CCCN(CCC)C(=O)Cc1c(-c2ccc(Cl)cc2)nc2c(Cl)cc(Cl)cn12 [ALPDEM]
Ki (Translocator protein): 0.41 nM

CCCCN(C)C(=O)Cc1c(-c2ccc(OC)cc2)nc2c(Cl)cc(Cl)cn12
Ki (Translocator protein): 0.882 nM | IC50 [1]: > 10000 nM

CCCN(CCC)C(=O)Cn1c(-c2ccc(Cl)cc2)nc2cccnc21
IC50 [1]: 380 nM

O=C1NC2CCCCN2C12CCN(CCCN1c3ccccc3CCc3ccc(Cl)cc31)CC2 (stereo not drawn) [MOSAPRAMINE]
Ki (D(4) dopamine receptor): 0.03 nM

CCCCN1CCC(CNC(=O)c2cc(Cl)cn3ccnc23)CC1
IC50 [11]: < 10 nM

c1ccn2cncc2c1
logP ([5]; read-out: logP): 0.41 | logD ([6]; read-out: logD): 0.17

c1cnc2[nH]cnc2c1
logP ([5]; read-out: logP): 0.41 | logD ([6]; read-out: logD): 0.41

O=S(=O)(NCCCn1ccnc1)c1ccnc2[nH]c(-c3ccc(C(F)(F)F)cc3)nc12
IC50 [4]: 1600 nM

O=C(NCCCn1ccnc1)c1ccnc2[nH]c(-c3ccc(C(F)(F)F)cc3)nc12
IC50 [4]: 13 nM

CCCN(CCC)C(=O)Cc1c(-c2ccccc2)nc2ccc([N+](=O)[O-])cn12
IC50 (Translocator protein): 11.8 nM | IC50 [1]: 2740 nM

CC(C)N1C(=O)N(C(=O)NC2CC3CCC(C2)N3C)C2C=CC=CC21 (stereo not drawn)
EC50 [12]: 72 nM

Cc1ccc(-c2nc3ccccn3c2NC2CCCCC2)cc1
Ki (Adenosine receptor A1): 2060 nM | Ki (Adenosine A2 receptor): > 100000 nM

CCCN(CCC)C(=O)Cc1c(-c2ccc(OC)cc2)nc2c(Cl)cc(Cl)cn12
Ki (Translocator protein): 0.537 nM | IC50 [1]: > 10000 nM

CCC/C=C/COCC(=O)Nc1cccc(-c2nc3cccnc3[nH]2)c1
IC50 [2]: 73000 nM

Cc1nc2ccc(-c3cc(N)nc(N)c3)nc2n1C1CC1
inhibition in vivo at 3 mg/kg (Mus musculus): 44%

CCCN(CCC)C(=O)Cc1c(-c2ccc(Cl)cc2)[nH]c2ccc(Cl)cc12
Ki (Translocator protein): 3.9 nM | IC50 [1]: > 1000 nM

Cn1nc(N2CCC(OC(=O)N3CCN(C4CCC4)CC3)CC2)ccc1=O [LML-134]
Ki (Histamine H3 receptor): 12 nM

CCN1C(=O)N(C(=O)NC2CC3CCC(C2)N3C)C2C=CC=CC21 (stereo not drawn)
EC50 [12]: 360 nM

CCOCCn1c(CN2CCN(CCCC(c3ccc(F)cc3)c3ccc(F)cc3)CC2)nc2cccnc21
IC50 [9]: 155 nM

CCCN(CCC)C(=O)Cc1c(-c2ccc(Cl)cc2)nc2c(NC(=O)CN(Cc3ccccn3)Cc3ccccn3)cccn12
Ki (Translocator protein): 293 nM

Clc1ccc(N2CCN(Cc3cn4ccccc4n3)CC2)cc1Cl
Ki (D(4) dopamine receptor): 0.99 nM
